The values below come from patent EP0918774B9, “ANDROGEN RECEPTOR MODULATOR COMPOUNDS AND METHODS” (LIGAND PHARMACEUTICALS INCORPORATED, priority 1996, dated 1997).

For one assay, the target named is T1, MR (Homo sapiens, UniProt P08235).
T1 construct: expressed in transfected cells; host or cells: CV-1 cells
T1 sequence (P08235 1-984): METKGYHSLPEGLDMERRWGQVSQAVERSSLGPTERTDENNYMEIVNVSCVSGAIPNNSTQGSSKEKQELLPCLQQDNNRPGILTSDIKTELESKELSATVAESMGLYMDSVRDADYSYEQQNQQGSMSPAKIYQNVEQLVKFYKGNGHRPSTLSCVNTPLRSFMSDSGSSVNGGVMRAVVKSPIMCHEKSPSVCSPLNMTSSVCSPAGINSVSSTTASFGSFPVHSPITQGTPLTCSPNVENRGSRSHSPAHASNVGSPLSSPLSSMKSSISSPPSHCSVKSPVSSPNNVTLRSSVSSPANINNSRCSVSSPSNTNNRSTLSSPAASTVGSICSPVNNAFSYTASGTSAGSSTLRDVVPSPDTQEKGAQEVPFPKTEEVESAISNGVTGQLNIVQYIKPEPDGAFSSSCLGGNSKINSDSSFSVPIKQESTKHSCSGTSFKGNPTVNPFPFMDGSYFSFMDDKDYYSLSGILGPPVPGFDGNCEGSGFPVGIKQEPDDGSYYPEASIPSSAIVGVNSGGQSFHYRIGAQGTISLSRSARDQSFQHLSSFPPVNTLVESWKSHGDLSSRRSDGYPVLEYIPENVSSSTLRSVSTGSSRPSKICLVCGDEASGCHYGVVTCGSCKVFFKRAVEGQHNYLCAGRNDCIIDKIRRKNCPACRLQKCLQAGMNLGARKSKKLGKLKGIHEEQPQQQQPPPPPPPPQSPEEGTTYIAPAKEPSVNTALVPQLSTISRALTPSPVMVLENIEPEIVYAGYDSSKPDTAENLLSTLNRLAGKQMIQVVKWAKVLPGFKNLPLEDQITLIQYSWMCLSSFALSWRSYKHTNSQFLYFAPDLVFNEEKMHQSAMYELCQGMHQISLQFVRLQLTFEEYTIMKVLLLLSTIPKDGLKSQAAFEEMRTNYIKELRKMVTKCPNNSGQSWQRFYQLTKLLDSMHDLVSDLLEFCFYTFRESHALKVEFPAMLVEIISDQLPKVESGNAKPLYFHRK
The assay can be described thus: Co-transfection assay, MR antagonist mode. Type of assay: cell-based. On the procedure:
(§1) CV-1 cells (African green monkey kidney fibroblasts) were cultured in the presence of Dulbecco's Modified Eagle Medium (DMEM) supplemented with 10% charcoal resinstripped fetal bovine serum then transferred to 96-well microtiter plates one day prior to transfection.
(§2) Three to four replicates were used for each sample.
(§3) After 40 hours, the cells were washed with PBS, lysed with a Triton X-100-based buffer and assayed for LUC and β-Gal activities using a luminometer or spectrophotometer, respectively. For each replicate, the normalized response (NR) was calculated as: LUC response/β-Gal rate where β-Gal rate = β-Gal•1x10^-5/β-Gal incubation time.

Assay [1] has as its target T2, human AR (Homo sapiens, UniProt P10275).
T2 construct: expressed in transfected cells; host or cells: CV-1 cells (African green monkey kidney fibroblasts), transient calcium phosphate transfection
T2 sequence (P10275 1-920): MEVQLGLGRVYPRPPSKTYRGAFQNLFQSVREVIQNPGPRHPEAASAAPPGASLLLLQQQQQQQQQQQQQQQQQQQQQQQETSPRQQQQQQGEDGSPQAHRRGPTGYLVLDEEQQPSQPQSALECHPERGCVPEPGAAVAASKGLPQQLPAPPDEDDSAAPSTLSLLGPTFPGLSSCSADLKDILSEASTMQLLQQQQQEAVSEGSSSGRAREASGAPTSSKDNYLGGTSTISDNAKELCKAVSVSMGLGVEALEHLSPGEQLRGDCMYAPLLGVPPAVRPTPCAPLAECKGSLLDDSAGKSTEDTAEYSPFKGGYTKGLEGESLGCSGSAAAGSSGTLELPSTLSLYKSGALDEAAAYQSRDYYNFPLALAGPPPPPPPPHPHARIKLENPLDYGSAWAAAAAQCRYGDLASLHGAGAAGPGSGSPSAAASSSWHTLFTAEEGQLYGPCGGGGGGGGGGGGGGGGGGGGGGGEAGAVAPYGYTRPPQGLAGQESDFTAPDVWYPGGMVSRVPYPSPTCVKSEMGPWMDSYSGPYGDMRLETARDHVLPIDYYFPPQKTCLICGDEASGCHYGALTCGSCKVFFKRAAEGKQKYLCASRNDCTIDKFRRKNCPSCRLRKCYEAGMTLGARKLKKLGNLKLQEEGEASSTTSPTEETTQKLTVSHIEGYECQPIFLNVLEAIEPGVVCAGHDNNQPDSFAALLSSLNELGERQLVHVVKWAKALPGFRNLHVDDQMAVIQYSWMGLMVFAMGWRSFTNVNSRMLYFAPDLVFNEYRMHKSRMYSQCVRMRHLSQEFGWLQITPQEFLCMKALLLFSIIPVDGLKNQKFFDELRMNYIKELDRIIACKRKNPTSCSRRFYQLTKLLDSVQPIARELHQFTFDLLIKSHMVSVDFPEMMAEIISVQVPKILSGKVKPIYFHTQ
The assay can be described thus: cell-based. Type of assay: cell-based.
Description: The co-transfection assay provides a method for identifying functional agonists and partial agonists which mimic, or antagonists which inhibit, the effect of native hormones, and quantifying their activity for responsive IR proteins. In this regard, the co-transfection assay mimics an in vivo system in the laboratory. Importantly, activity in the co-transfection assay correlates very well with known in vivo activity, such that the co-transfection assay functions as a qualitative and quantitative predictor of a tested compounds in vivo pharmacology. See, e.g., T. Berger et al. 41 J. Steroid Biochem. Molec.
as §1
The reporter plasmid, MTV-LUC, contains the cDNA for firefly luciferase (LUC) under control of the mouse mammary tumor virus (MTV) long terminal repeat, a conditional promoter containing an androgen response element. See e.g, Berger et al. supra. In addition, pRS-β-Gal, coding for constitutive expression of E. colβ-galactosidase (β-Gal), was included as an internal control for evaluation of transfection efficiency and compound toxicity.
as §2, §3

Assay [2] deals with T2, human AR. Put plainly: cell-based. It counts as binding.

Like-named read-outs stand apart in the source and are kept apart here. Some results are limits rather than exact numbers.

Consider `CC12CCCN1c1cc3nc(O)cc(C(F)(F)F)c3cc1CC2` (racemic) [Compound 101, (R/S)-6,7,7a,11-Tetrahydro-7a-methyl-4-trifluoromethyl-2-pyridono[5,6-g]pyrrolidino[1,2-a]quinoline], for which, on MR, the IC50 (in general, the concentration needed to halve the response being measured) was greater than 10000 nM. On human AR [1], the “AR Agonist CV-1 Cells Efficacy (%)” value is “na (key: na: not active (i.e. efficacy of <20 and potency of >10,000))”; the “AR Antagonist CV-1 Cells Efficacy (%)” value stood at 80%; the EC50 is greater than 10000 nM; the IC50 was determined as 362 nM. Besides, the EC50 on human AR [1] (read-out: AR Potency Agon) is greater than 10000 nM. Moreover, the Ki (commonly the equilibrium dissociation constant of an inhibitor or competing ligand from its target) on human AR [2] (read-out: AR Binding Ki) was 169 nM.

In the case of `CC12CCCN1c1cc3[nH]c(=O)c(F)c(C(F)(F)F)c3cc1CC2` (racemic) [Compound 102, (R/S)-3-Fluoro-6,7,7a,11-tetrahydro-7a-methyl-4-trifluoromethyl-2-pyridono[5,6-g]pyrrolidino[1,2-a]quinoline], the IC50 against MR was greater than 10000 nM; against human AR [1], 29 nM. The EC50 on human AR [1] is greater than 10000 nM; at human AR [1] (read-out: AR Potency Agon, Table 2, na = not active), greater than 10000 nM. At human AR [1] (% of maximal inhibition, fixed DHT at EC50, na = not active), the “AR Antagonist CV-1 Cells Efficacy (%)” value is on record as 86%. Also, the “AR Agonist CV-1 Cells Efficacy (%)” value on human AR [1] (percent maximal response relative to reference agonist DHT, na = not active) was “na (not active (i.e. efficacy of <20 and potency of >10,000))”. This compound also had a Ki on human AR [2] of 78 nM.
